The source made the active and inactive calls. Cut-off read from the data, not from the text of the source, for most assays here: actives have a measured EC50 and inactives only a lower limit.
What was measured:
Fatty acid synthase [1] = target: T1, Fatty acid synthase (Homo sapiens, UniProt P49327); assay: inhibition of human FAS-TE enzyme activity – biochemical, kinetic fluorescence intensity, dose response (AID 624326); format: functional;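 note: rate of fluorescence rise from hydrolysis of a fluorogenic O-methyl fluorescein ester substrate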
Fatty acid synthase [2] = target: T1, Fatty acid synthase; assay: inhibition of human FAS-TE enzyme activity – biochemical, endpoint fluorescence intensity, uHTS hits, dose response (AID 624327); format: functional;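 note: fluorescence from hydrolysis of an O-methyl fluorescein acyl ester substrate by the enzyme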
[3] = Luminescence Cell-Based Dose Response HTS to Identify Activators of Luciferase Translation or Activity in H4 […] Cells. [Related pubchem assays: 1829 (Project Summary), 1814 (Primary HTS)]; format: functional
[4] = Luminescence Cell-Based Dose Confirmation HTS to Identify Activators of 5'UTR Stem-Loop Driven Alpha-Synuclein mRNA Translation in H4 Neuroglioblastoma Cells. [Related pubchem assays: 1829 (Project Summary), 1814 (Primary HTS)]; format: functional
Protein RecA = target: T2, Protein RecA (Mycobacterium tuberculosis, UniProt P9WHJ3); assay: Fluorescence Cell-Free Homogeneous Dose Retest to Identify Inhibitors of RecA-Intein Splicing Activity. [Related pubchem assays (depositor defined):AID2097, AID2223, AID489010, AID492950]; format: functional
T2 sequence (P9WHJ3 whole entry): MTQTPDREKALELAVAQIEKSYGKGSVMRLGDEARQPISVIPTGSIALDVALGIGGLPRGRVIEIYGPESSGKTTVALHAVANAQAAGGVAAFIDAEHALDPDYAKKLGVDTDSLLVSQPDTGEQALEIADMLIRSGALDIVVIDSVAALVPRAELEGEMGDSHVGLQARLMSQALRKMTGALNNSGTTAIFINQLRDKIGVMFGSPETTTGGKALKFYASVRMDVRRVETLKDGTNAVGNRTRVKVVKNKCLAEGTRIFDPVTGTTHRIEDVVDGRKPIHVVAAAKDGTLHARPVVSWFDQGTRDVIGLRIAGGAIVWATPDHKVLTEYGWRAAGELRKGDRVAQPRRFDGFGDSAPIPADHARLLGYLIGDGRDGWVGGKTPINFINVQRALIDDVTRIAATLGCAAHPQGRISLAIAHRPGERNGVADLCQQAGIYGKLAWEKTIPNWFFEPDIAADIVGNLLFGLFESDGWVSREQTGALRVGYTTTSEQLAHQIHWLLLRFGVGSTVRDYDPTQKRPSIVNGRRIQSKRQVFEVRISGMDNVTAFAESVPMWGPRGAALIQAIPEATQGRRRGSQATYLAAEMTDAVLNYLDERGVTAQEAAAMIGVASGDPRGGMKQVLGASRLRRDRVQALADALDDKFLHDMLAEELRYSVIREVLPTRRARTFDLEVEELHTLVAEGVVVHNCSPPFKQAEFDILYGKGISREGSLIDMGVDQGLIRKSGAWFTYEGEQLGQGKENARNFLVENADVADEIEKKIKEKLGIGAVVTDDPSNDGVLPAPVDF

[5] = target: T3, Replicative DNA helicase DnaB (Mycobacterium tuberculosis, UniProt P9WMR3); assay: DnaB intein splicing inhibitors, dose response, biochemical, cell-free fluorescence (AID 449749); format: functional
T3 sequence (P9WMR3 whole entry): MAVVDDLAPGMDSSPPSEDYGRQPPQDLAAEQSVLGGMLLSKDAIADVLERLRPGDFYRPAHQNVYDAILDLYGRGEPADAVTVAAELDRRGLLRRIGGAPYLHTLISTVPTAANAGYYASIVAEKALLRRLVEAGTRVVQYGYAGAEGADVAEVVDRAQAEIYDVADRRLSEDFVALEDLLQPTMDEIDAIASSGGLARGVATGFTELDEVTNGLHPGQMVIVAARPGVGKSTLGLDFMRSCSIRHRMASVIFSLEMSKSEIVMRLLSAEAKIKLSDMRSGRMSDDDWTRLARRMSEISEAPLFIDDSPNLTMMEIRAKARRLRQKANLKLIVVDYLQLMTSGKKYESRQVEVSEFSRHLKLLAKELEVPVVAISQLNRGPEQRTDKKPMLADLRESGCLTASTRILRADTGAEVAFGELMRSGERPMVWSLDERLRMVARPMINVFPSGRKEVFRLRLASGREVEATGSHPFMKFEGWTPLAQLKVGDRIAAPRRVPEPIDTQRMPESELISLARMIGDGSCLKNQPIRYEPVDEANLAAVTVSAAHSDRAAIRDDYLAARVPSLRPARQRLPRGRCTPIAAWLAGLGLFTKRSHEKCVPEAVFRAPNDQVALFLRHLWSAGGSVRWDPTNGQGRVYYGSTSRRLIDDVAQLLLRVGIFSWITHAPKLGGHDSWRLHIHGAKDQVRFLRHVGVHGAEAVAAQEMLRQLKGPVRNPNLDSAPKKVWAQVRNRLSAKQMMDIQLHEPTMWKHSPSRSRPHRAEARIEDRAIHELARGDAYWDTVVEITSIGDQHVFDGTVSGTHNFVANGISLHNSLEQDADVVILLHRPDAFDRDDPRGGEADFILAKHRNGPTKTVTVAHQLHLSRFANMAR

H4 = assay: Luminescence Cell-Based Dose Response HTS to Identify Activators of 5'UTR Stem-Loop Driven Prion Protein mRNA Translation in H4 Neuroglioblastoma Cells. [Related pubchem assays: 1829 (Project Summary), 1814 (Primary HTS)]; format: functional; conditions: Homo sapiens
[6] = target: T4, Rac GTPase-activating protein 1 (Homo sapiens, UniProt Q9H0H5); assay: blockers of MgcRacGAP-driven Rac1 GTP hydrolysis – biochemical, ADP Hunter fluorescence, primary and confirmatory, confirmation (AID 624330); format: functional
T4 sequence (Q9H0H5 whole entry): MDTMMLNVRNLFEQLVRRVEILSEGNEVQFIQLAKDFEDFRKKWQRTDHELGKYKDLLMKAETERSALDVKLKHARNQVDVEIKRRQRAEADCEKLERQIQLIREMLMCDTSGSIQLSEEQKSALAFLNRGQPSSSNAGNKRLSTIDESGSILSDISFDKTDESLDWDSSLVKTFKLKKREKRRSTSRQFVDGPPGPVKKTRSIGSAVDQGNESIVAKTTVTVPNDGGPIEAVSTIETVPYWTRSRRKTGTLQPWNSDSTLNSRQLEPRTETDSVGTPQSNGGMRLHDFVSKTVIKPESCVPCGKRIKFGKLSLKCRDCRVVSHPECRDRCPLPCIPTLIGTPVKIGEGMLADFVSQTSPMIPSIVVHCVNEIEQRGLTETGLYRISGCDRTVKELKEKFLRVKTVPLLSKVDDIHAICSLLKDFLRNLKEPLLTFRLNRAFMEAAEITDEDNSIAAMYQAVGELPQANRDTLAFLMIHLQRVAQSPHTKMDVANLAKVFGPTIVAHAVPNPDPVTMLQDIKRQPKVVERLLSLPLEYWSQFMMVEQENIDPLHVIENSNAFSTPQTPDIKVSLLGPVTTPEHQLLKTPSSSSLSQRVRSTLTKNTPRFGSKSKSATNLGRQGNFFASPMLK

[7] = fluconazole-exposed Candida albicans growth modulators – fluorescence, retest, confirmation (AID 2467); format: functional, cell-based
[8] = NIH-3T3 fibroblast cytotoxicity, dose response, cytotoxicity control, cell-based, fluorescence, Alamar Blue, secondary assay (AID 2327); format: functional;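 note: NIH-3T3 mouse fibroblasts cultured with fluconazole at 8 µg/mL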
[9] = NIH3T3 cell viability loss – ATP luminescence, mouse fibroblasts, counter-screen, dose response (AID 2010); format: functional, cell-based;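 note: cells exposed to compound for about 90 hours before reading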
[10] = Trypanosoma cruzi growth suppression in host cells – NIH3T3 host cells, beta-gal luminescence, confirmation (AID 2044); format: functional, cell-based;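 note: intracellular parasites grown in NIH/3T3 mouse fibroblasts as host cells; luminescent beta-galactosidase reporter signal from transgenic T. cruzi replicating inside host cells; inhibitors lower the luminescence signal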

T1 sequence (P49327 whole entry): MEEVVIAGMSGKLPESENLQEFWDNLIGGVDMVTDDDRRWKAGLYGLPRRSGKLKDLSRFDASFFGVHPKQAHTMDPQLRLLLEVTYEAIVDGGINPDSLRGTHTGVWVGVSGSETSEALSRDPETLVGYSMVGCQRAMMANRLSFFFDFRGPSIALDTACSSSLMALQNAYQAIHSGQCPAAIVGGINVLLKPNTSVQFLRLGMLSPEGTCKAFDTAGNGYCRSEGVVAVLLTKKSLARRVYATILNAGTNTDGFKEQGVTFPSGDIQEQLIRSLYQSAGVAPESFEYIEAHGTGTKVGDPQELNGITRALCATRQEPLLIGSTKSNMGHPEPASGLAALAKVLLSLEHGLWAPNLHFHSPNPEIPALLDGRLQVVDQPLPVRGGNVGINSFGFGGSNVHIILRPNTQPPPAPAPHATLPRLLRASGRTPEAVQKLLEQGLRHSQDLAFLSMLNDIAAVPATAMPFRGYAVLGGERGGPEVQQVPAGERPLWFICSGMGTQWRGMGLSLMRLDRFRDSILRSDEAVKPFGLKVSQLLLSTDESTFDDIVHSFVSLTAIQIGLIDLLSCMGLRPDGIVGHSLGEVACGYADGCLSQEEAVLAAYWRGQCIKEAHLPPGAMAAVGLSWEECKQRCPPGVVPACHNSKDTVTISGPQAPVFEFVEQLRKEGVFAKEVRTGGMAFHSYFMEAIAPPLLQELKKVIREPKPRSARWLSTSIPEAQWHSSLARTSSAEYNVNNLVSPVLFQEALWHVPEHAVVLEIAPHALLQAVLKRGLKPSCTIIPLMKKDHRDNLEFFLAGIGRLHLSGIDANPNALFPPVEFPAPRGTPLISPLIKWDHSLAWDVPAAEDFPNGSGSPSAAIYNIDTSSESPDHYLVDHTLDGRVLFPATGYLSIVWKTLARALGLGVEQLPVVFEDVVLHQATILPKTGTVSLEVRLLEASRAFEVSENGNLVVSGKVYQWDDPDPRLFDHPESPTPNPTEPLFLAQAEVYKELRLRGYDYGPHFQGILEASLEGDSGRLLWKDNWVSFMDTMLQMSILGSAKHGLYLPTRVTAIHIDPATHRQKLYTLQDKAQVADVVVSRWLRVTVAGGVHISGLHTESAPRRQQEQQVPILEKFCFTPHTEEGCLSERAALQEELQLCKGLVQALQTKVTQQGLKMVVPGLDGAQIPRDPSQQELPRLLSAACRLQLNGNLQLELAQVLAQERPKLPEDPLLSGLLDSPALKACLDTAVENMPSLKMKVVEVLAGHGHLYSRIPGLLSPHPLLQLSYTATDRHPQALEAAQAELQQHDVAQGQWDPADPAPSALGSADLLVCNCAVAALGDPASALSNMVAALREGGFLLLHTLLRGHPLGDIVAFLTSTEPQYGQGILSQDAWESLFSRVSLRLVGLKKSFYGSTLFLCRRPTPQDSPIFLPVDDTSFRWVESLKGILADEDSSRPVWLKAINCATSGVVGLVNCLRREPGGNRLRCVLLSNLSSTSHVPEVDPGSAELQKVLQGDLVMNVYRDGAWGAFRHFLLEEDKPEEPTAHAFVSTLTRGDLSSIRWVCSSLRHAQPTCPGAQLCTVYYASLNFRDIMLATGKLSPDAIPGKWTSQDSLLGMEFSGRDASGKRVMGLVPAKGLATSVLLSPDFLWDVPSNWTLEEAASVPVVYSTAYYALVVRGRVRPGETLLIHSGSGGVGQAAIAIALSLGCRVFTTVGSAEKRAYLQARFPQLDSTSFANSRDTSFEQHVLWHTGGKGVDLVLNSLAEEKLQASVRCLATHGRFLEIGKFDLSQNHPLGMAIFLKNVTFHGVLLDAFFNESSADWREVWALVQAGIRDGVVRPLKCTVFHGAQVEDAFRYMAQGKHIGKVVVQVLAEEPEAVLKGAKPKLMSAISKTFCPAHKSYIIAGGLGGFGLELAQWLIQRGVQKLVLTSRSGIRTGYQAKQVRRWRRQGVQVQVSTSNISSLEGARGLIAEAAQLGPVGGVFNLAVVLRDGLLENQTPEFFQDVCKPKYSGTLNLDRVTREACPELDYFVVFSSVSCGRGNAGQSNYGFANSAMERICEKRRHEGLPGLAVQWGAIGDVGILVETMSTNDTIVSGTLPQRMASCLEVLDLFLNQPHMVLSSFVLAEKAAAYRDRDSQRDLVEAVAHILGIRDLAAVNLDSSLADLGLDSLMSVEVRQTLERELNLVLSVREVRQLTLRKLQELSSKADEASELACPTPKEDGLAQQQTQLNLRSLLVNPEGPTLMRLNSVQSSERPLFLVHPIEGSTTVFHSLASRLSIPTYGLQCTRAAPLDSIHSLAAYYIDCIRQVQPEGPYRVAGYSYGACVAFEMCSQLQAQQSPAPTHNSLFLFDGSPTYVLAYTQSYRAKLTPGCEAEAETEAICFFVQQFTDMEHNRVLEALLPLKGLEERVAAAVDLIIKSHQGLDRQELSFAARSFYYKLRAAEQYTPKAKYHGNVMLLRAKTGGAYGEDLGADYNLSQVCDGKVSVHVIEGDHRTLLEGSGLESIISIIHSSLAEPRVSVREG

| SMILES | EC50 [3] | EC50 [4] | EC50 (H4) | also measured |
| --- | --- | --- | --- | --- |
| CC(C)(C)OC(=O)NCc1ccc(CNC(=O)c2[nH]cnc2C(=O)NCC(=O)OCc2ccccc2)cc1 |  |  |  | IC50 (Fatty acid synthase [1]): 4.49 µM (active); IC50 (Fatty acid synthase [2]): 6.98 µM (active) |
| O=C(NC1=NCCS1)c1ccc(-c2ccc(Cl)cc2)o1 | 0.306 µM (active) | 21.4 µM (active) |  |  |
| Cc1ccc(-c2noc(-c3ccccc3C(=O)N3CCOCC3)n2)cc1 |  |  |  | EC50 (Protein RecA): > 380 µM (inactive); AC50 [5]: 196 µM (active) |
| CC(=O)c1cnc2nc(SCc3ccccc3)nn2c1C | 0.131 µM (inconclusive) | 0.116 µM (active) | 74.8 µM (active) |  |
| COc1cccc(C2=NO[C@@H]3C(=O)N(c4ccc5c(c4)OCCO5)C(=O)[C@H]23)c1OC | > 120 µM (not active) | > 120 µM (not active) | > 120 µM (not active) |  |
| CC(=O)C1=C(O)C(=O)N(c2ccc(Br)cn2)C1c1ccc(Br)cc1 (configuration not stated) | 0.112 µM (active) | > 120 µM (not active) | 0.987 µM (active) |  |
| Nc1nn2c(-c3ccccc3)cc(O)nc2c1N=Nc1ccc(O)cc1 |  |  |  | EC50 (Protein RecA): 1.88 µM (active); AC50 [5]: 3.91 µM (active); IC50 [6]: 60.1 µM (active) |
| Cc1cccc(NC(=O)c2cc([N+](=O)[O-])ccc2N2CCN(C)CC2)c1 |  |  |  | IC50 (Fatty acid synthase [1]): 11.3 µM (active); IC50 (Fatty acid synthase [2]): 8.93 µM (active) |
| COc1ccccc1NC(=O)c1ccccc1S(=O)(=O)c1ccc([N+](=O)[O-])cc1 |  |  |  | IC50 (Fatty acid synthase [1]): 8.19 µM (active); IC50 (Fatty acid synthase [2]): 14.9 µM (active) |
| Cc1nc(-c2ccc(S(=O)(=O)Oc3ccccc3Cl)s2)cs1 | 12 µM (active) | 13 µM (active) | 2.84 µM (active) |  |
| O=C(NNc1ccc(Cl)cc1)c1c(F)cccc1Cl |  |  |  | EC50 [7]: > 38 µM (not active); EC50 [8]: > 150 µM (inactive) |
| O=C(NCCCc1ccccc1)c1ccc([N+](=O)[O-])cc1Cl |  |  |  | IC50 (Fatty acid synthase [1]): 1.31 µM (active); IC50 (Fatty acid synthase [2]): 1.25 µM (active) |
| COc1cc(C)c(Cl)c(C)c1S(=O)(=O)NC1CC(C)(C)NC(C)(C)C1 | > 120 µM (not active) | 15.2 µM (active) | > 120 µM (not active) |  |
| Nc1ccc(S(=O)(=O)Nc2nccc(/C=C/c3ccc(Cl)cc3Cl)n2)cc1 | 13.6 µM (active) | > 120 µM (not active) | > 120 µM (not active) |  |
| CCN1CCN(CCCOc2ccc(Cl)cc2Br)CC1 |  |  |  | EC50 [9]: 32.5 µM (active); IC50 [6]: 68.8 µM (active); EC50 [10]: 1.6 µM (active) |
| CCc1nnc(NC(=O)C23CC4CC(CC(C4)C2)C3)s1 | 45.6 µM (active) | 19 µM (active) | 8.2 µM (active) |  |
| CN(C)/C=C1\NC(=S)N(c2ccccc2)C1=O |  |  |  | IC50 [6]: 65.4 µM (active) |

Reference: ChEMBL document CHEMBL1201862, “PubChem BioAssay data set” (2004)
